{
  "source": "paper PMC12285946",
  "about": "“Investigation of the Cytotoxicity of Cu(II), Au(III), and Pd(II) Complexes with 2,4-Dithiouracil and 6-Propyl-2-thiouracil Derivatives” (BioTech, 2025)",
  "key": {"[1]": {"test_system": "Vero cell line (kidney cells from African green monkey)", "test": "MTT cell viability assay, Vero normal cell line", "assay_type": "cell-based", "conditions": "for Cytotoxic Concentration (CD50): Vero normal cell line, MTT, 72 h", "description": "(§1) To assess the in vitro biocompatibility of the tested compounds, a series of cell viability assays were conducted on human cervical carcinoma cell lines (HeLa), as well as on normal Vero cells (kidney cells from the African green monkey). All cell lines were obtained from the German Collection of Microorganisms and Cell Cultures (DSMZ GmbH, Braunschweig, Germany). The cell cultures were maintained in DMEM (Dulbecco’s Modified Eagle Medium) (Gibco Thermofisher Scientific, 168 Third Avenue, Waltham, MA, USA, 02451) growth medium, supplemented with 10% fetal bovine serum (FBS, Sigma-Aldrich, Darmstadt, Germany) and 5% L-glutamine (Sigma-Aldrich, Darmstadt, Germany) and incubated under controlled conditions of 37 °C in a humidified atmosphere with 5% CO2.\n(§2) The experimental approach included a series of cytotoxicity assays to determine the extent of cell proliferation inhibition by the synthesized complexes and their free ligands. Cell viability was quantified using a standard MTT-based colorimetric assay. Exponentially growing cells were harvested and seeded (100 μL per well) into 96-well plates at an appropriate density—3 × 10^5 for HeLa and Vero cells. The cells were exposed to various concentrations of the tested compounds, ranging from 0.0001 to 10 mg/mL, and incubated for 72 h.\n(§3) Statistical significance was established at p ≤ 0.05."}, "[2]": {"test_system": "HeLa cell line (human cervical carcinoma)", "test": "MTT cell viability assay, HeLa tumor cell line", "assay_type": "cell-based", "conditions": "for Cytotoxic Concentration (CD50): MTT, 72 h", "description": "as §1, §2, §3"}, "HeLa cell lines": {"test_system": "HeLa cell lines", "conditions": "cited from earlier work"}},
  "data": [
    {"smiles": "CCCc1cc(=O)[nH]c(=S)[nH]1", "note": "[6-propyl-2-thiouracil]", "values": [
      {"measurement": "Cytotoxic Concentration (CD50)", "setting": "[1]", "result": 0.6068, "unit": "mM"},
      {"measurement": "cytotoxic activity relative to 2,4-dithiouracil", "setting": "[1]; normal cell line (Vero)", "result": "two times stronger"},
      {"measurement": "cytotoxic activity relative to 2,4-dithiouracil", "setting": "[2]", "result": "three times"},
      {"measurement": "Cytotoxic Concentration (CD50)", "setting": "[2]", "result": 0.0955, "unit": "mM"}
    ]},
    {"smiles": "N.N.O=C([O-])C1(C(=O)[O-])CCC1.[Pt+2]", "note": "[carboplatin]", "values": [
      {"measurement": "concentration yielding complete inhibition of cell viability", "setting": "HeLa cell lines; HeLa", "result": 1, "unit": "mg/mL"}
    ]},
    {"smiles": "Sc1ccnc(S)n1", "note": "[2,4-dithiouracil]", "values": [
      {"measurement": "Cytotoxic Concentration (CD50)", "setting": "[1]", "result": 1.421, "unit": "mM"},
      {"measurement": "Cytotoxic Concentration (CD50)", "setting": "[2]", "result": 0.3167, "unit": "mM"}
    ]},
    {"smiles": "N.N.[Cl][Pt][Cl]", "note": "[Cisplatin]", "values": [
      {"measurement": "reduction in cell viability", "setting": "HeLa cell lines; 0.15 mg/mL, 24 h, HeLa", "result": "about 10%"},
      {"measurement": "concentration leading to a significant loss of cell viability", "setting": "HeLa cell lines; HeLa, on average", "result": 0.003, "unit": "mg/mL"},
      {"measurement": "concentration needed for complete inhibition of viability", "setting": "HeLa cell lines; human cervical carcinoma cell line", "result": "higher than 1.5 mg/mL"}
    ]}
  ]
}
